Tested on: T1, SSADH (succinic semialdehyde dehydrogenase) of germinated Tartary buckwheat
T1 construct: NAD+-dependent (printed EC 1.2.1.79 is the NADP+ class)
Experiment: NADH formation at […] nm, Lineweaver-Burk
Format: biochemical, Fagopyrum tataricum
Conditions: 1 mmol/L EDTA, 20 mmol/L beta-mercaptoethanol, 1 mmol/L PMSF, partially purified enzyme

Row | SMILES | Km (0.2 mmol/L SSA fixed, PBS pH 8.6, 30 °C) [µM] | Km (2 mmol/L NAD+, 1/15 mol/L PBS pH 8.6 (b78 prints mmol/L), 30 °C) [µM]
1 | NC(=O)c1ccc[n+]([C@@H]2O[C@H](COP(=O)(O)OP(=O)(O)OC[C@H]3O[C@@H](n4cnc5c(N)ncnc54)[C@H](O)[C@@H]3O)[C@@H](O)[C@H]2O)c1 [NAD^+] | 636 | –
2 | O=CCCC(=O)O [SSA] | – | ~235

Source: article PMC10777983, “The Optimization of Assay Conditions and Characterization of the Succinic Semialdehyde Dehydrogenase Enzyme of Germinated Tartary Buckwheat” (Foods, 2023)
